# Molecular target: Human Inducible Nitric Oxide Synthase (Homo sapiens, UniProt P35228)
# Assay: Inhibition of human inducible nitric oxide synthase (formation of L-[3H]citrulline from L-[3H]arginine)
# Format: biochemical
# Conditions: 1 μM L-Arg, pH 7.5, room temperature, 30 minutes; for inhibition at 50 µM: 50 μM inhibitor
# Source text: J Lowenstein and S. H. Snyder in Methods in Enzymology, Vol. 233, L. Packer, ed., Academic Press, NY, 1994, Ch.26, pp. 264-269.
# Various assays for NOS activity have been reported in the literature and are reviewed in the following: M. E. Murphy and E. Noack in Methods in Enzymology, Vol. 233, L. Packer, ed., Academic Press, NY, 1994, Ch.26, pp. 240-250 and J. M. Hevel and M. A. Marletta in Methods in Enzymology, Vol. 233, L. Packer, ed., Academic Press, NY, 1994, Ch.26, pp. 250-258. Details for the assay protocols to measure NOS activity are as follows:
# NOS activity is measured as the formation of L-[2,3,4,5-^3 H]Citrullinefrom L-[2,3,4,5-^3 H]Arginine. The incubation buffer (100 μL) contained; 100 mM TES, pH 7.5, 5 μM FAD, 5 μM FMN, 10 μM BH4, 0.5 mM NADPH, 0.5 mM DTT, 0.5 mg/mL BSA, 2 mM CaCl2, 10 μg/mL calmodulin (bovine), 1 μM L-Arg, 0.2 μCi L-[2,3,4,5-^3 H]Arg, and the inhibitor in aqueous DMSO (max. 5 %). The reaction is initiated by addition of enzyme. Incubations are performed at room temperature for 30 minutes and stopped by the addition of an equal volume of quenching buffer consisting of 200 mM sodium citrate, pH 2.2, 0.02% sodium azide. Reaction products are separated by passing through a cation exchange resin and quantitated as cpm by scintillation counting. Percent inhibition is calculated relative to enzyme incubated without inhibitor according to: % inhibition =[…](cpm L-[2,3,4,5-^3 H]Cit with inhibitor/cpm L-[2,3,4,5-^3 H]Cit without inhibitor).
Structure (SMILES),IC50,inhibition at 50 µM
"Cc1ccc(NC(=O)Nc2cc(C)ccn2)cc1 [Example 1, N-(2-(4-Methylpyridyl))-N'-(4-methylphenyl)-urea]",< 50 µM,54%
"Cc1ccnc(NC(N)=S)c1 [Example 2, N-(2-(4-Methylpyridyl))-thiourea]",< 50 µM,63%
"Cc1cc(C)nc(NC(N)=S)c1 [Example 3, N-(2-(4,6-dimethylpyridyl))-thiourea]",< 50 µM,75%
"C=CCNC(=S)Nc1ccc(C(F)(F)F)cn1 [Example 4, N-(2-(5-trifluoromethylpyridyl))-N'-allyl-thiourea]",< 10 µM,86%
"C=CCNC(=S)Nc1cc(C)cc(C)n1 [Example 5, N-(2-(4,6-dimethylpyridyl))-N'-allyl-thiourea]",< 50 µM,51%
"Cc1ccnc(NC(=S)NC(C)C)c1 [Example 6, N-(2-(4-Methylpyridyl))-N'-isopropyl-thiourea]",< 1 µM,100%
"CCNC(=S)Nc1cc(C)ccn1 [Example 7, N-(2-(4-Methylpyridyl))-N'-ethyl-thiourea]",< 10 µM,–
"Cc1ccnc(NC(=S)Nc2ccccc2)c1 [Example 8, N-(2-(4-Methylpyridyl))-N'-phenyl-thiourea]",–,50%
"S=C(Nc1ccc(Br)cc1)Nc1ccccn1 [Example 9, N-(2-Pyridyl)-N'-(4-bromophenyl)-thiourea]",< 50 µM,55%
"Cc1ccnc(NC(=S)Nc2cccc3ccccc23)c1 [Example 10, N-(2-(4-Methylpyridyl))-N'-(1-naphthyl)-thiourea]",–,54%
"Cc1ccnc(NC(=S)Nc2cccc(F)c2)c1 [Example 11, N-(2-(4-Methylpyridyl))-N'-(3-fluorophenyl)-thiourea]",< 50 µM,70%
Cc1ccnc(NC(=S)NCc2ccccc2)c1 [Example 12],< 50 µM,76%
"Cc1ccnc(NC(=S)NC2CC(C)CC(C)(C)C2)c1 (stereo not shown) [Example 13, N-(2-(4-Methylpyridyl))-N'-(3,3,,5-trimethylcyclohexyl)-thiourea]",< 50 µM,57%
"Cc1ccnc(NC(=O)NC(=O)c2ccccc2)c1 [Example 14, N-(2-(4-Methylpyridyl))-N'-benzoyl-urea]",< 10 µM,96%
"Cc1ccnc(NC(=S)NCCC[C@H](N)C(=O)O)c1 [Example 15, N-(2-(4-Methylpyridyl))-N'-(((S)-4-amino-4-carboxy)-n-butyl)-thiourea]",< 10 µM,85%
"CCN(CC)S(=O)(=O)NC(=O)Nc1ccccn1 [Example 16, N-(2-Pyridyl)-N'-(diethylaminosulfonyl)-urea]",< 10 µM,55%
CCN(CC)S(=O)(=O)NC(=O)Nc1ncccc1C [Example 17],< 10 µM,–
CCN(CC)S(=O)(=O)NC(=O)Nc1cc(C)ccn1 [Example 18],< 1 µM,92%
CCN(CC)S(=O)(=O)NC(=O)Nc1ccc(C)cn1 [Example 19],< 50 µM,–
CCN(CC)S(=O)(=O)N(C)C(=O)Nc1cc(C)ccn1 [Example 20],< 1 µM,–
"COC(=O)C(=O)Nc1cc(C)ccn1 [Example 21, Oxalamide, N-(4-methyl-2-pyridyl), methyl ester]",< 1 µM,–
"COC(=O)CC(=O)Nc1cc(C)ccn1 [Example 22, Malonamide, N-(4-methyl-2-pyridyl), methyl ester]",> 50 µM,57%
